Here are results for 5 compounds from ChEMBL document CHEMBL1126337, “Cholecystokinin analogues: The ergopeptine alkaloids as models of the active conformation of CCK” (Bioorg Med Chem Lett, 1992).

The target in assay [1] is T1, Gastrin/cholecystokinin type B receptor (Mus musculus, UniProt P56481).
T1 sequence (P56481 whole entry): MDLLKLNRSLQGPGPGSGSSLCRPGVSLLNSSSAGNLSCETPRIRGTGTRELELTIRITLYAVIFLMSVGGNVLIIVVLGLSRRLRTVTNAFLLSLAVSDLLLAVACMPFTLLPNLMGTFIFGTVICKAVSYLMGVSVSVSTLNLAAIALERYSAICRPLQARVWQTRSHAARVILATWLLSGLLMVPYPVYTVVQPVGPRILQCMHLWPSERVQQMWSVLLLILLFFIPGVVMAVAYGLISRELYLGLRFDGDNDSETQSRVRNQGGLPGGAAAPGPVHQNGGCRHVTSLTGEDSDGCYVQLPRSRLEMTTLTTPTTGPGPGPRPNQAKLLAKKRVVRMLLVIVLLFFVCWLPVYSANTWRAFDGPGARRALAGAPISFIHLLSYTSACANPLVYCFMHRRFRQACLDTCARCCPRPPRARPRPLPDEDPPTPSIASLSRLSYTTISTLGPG
The assay is described as follows: Concentration of compound required to inhibit binding of [125I]J-BH-CCK-8 radioligand to CCKB in mouse fore brain membranes. It is filed as cell membranes, Membrane.

Assay [2] has as its target T2, Cholecystokinin receptor type A (Mus musculus, UniProt O08786).
T2 sequence (O08786 whole entry): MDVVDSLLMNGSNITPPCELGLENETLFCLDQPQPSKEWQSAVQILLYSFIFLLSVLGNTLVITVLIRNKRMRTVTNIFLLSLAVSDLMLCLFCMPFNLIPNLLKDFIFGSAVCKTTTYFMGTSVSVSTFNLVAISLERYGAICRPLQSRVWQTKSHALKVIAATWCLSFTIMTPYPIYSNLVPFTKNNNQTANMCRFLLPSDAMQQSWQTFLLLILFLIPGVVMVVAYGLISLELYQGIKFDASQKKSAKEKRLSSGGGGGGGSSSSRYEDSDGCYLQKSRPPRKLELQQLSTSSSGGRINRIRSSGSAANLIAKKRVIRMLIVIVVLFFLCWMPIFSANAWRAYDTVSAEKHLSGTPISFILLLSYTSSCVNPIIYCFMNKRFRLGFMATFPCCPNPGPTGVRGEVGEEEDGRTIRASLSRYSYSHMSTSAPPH
Put plainly: Concentration of compound required to inhibit binding of [125I]J-BH-CCK-8 radioligand to CCKA in mouse pancreatic membranes. The format is cell membranes.

The structures appear in SMILES notation. Peptide text beside a SMILES is read from it. * marks the point of attachment. NHPhenethyl = c1ccc(CCN*)cc1; Boc = CC(C)(C)OC(=O)* Where only a bound is given, the exact number is not on record here.

Consider `C[C@H](NC(=O)C1C=C2c3cccc4[nH]cc(c34)CC2N(C)C1)C(=O)NCCc1ccccc1` (stereo not given in full), for which the results for the IC50 in assay [1] and in assay [2] were more than 80 µM and 12 µM, respectively.
As for `CC(C)C[C@H](NC(=O)[C@H](Cc1c[nH]c2ccccc12)NC(=O)OC(C)(C)C)C(=O)N[C@@H](CC(=O)O)C(=O)NCCc1ccccc1` (Boc-Trp-Leu-Asp-NHPhenethyl), the values for the 50% inhibitory concentration (IC50) in assay [1] and in assay [2] were 0.35 µM and 3.5 µM, respectively.
As to `CN1C[C@H](C(=O)N[C@]2(C)O[C@@]3(O)[C@@H]4CCCN4C(=O)[C@H](Cc4ccccc4)N3C2=O)C[C@@H]2c3cccc4[nH]cc(c34)C[C@H]21` [DIHYDROERGOTAMINE], the results for the IC50 in assay [1] and in assay [2] were 23 µM and more than 80 µM, respectively.
Taken in the same sequence, the figures for `CC(C)C[C@H]1C(=O)N2CCC[C@H]2[C@]2(O)O[C@](NC(=O)[C@@H]3C=C4c5cccc6[nH]cc(c56)C[C@H]4N(C)C3)(C(C)C)C(=O)N12` [ERGOCRYPTINE] were more than 80 µM and more than 80 µM.
Taken in the same sequence, the figures for `CN1C[C@H](C(=O)N[C@]2(C)O[C@@]3(O)[C@@H]4CCCN4C(=O)[C@H](Cc4ccccc4)N3C2=O)C=C2c3cccc4[nH]cc(c34)C[C@H]21` [ERGOTAMINE] were 17 µM and 34 µM.
